Results taken from the OPERA property sets (Mansouri et al. 2018).

Details: for log10 biotransformation half-life (days) / log10 BCF: fish

Structure (SMILES)	melting point [°C]	boiling point [°C]	further results
C[C@]12Cc3nonc3C[C@@H]1CC[C@@H]1[C@@H]2CC[C@@]2(C)[C@H]1CC[C@]2(C)O	152		
CCS(=O)(=O)c1nc2ccccn2c1S(=O)(=O)NC(=O)Nc1nc(OC)cc(OC)n1	201		
O=C1CCC(=O)N1Br	174		
COc1cc(OC)nc(N=C(O)NS(=O)(=O)c2c(Cl)nc3ccccn23)n1			log10 vapour pressure (mmHg): -9.47
C=COC(C)(C)C	-112	75	
CCCN(CCC)c1c([N+](=O)[O-])cc(S(C)(=O)=O)cc1[N+](=O)[O-]	150		log10 Koc (L/kg): 2.92; log10 vapour pressure (mmHg): -8.03; ready biodegradability: not readily biodegradable
BrCc1ccc(CBr)cc1	144	245	
CC(C)(C)c1nnc(NS(=O)(=O)c2ccccc2)s1	163		
Cc1cccc(C(=O)O)c1S(=O)(=O)NC(=O)Nc1nc(OCC(F)(F)F)nc(N(C)C)n1	162		
CC(C)[C@@H]1CC[C@@H](C)CC1=O	-6	207	
COC(=O)c1cc(OC)c(OC)c(OC)c1	83	274	
O=C(O)c1cccc(C(=O)O)n1			ready biodegradability: readily biodegradable
Cc1ccc(F)cc1	-56	117	log10 vapour pressure (mmHg): 1.32
CN(C)C(=O)OC1=CC(=O)CC(C)(C)C1	45.5		
C1COCCOCCOCCO1	16		
Clc1ccc(-c2cc(Cl)c(Cl)c(Cl)c2)cc1			log10 biotransformation half-life (days): 1.69
CN(C)c1ccccn1	182	196	
COC(=O)CCCCl		175	
COc1ccc(CCCCO)cc1	3.5		
CC(F)F	-117	-24.9	log10 Henry constant (atm·m³/mol): -1.69; log10 vapour pressure (mmHg): 3.66
CC1(C)CC(N)CC(C)(CN)C1 (stereo not given)	10	247	log10 vapour pressure (mmHg): -1.82; ready biodegradability: not readily biodegradable
CC(c1ccc(Cl)cc1)c1ccc(Cl)cc1	56	320	
Cc1c(C)c([N+](=O)[O-])c(C)c(C)c1[N+](=O)[O-]	212		
C=C(CC(=O)OCC)C(=O)OCC	58.5	228	
ClC=C(Cl)Cl	-84.7	87.2	log10 Henry constant (atm·m³/mol): -2.01; log10 Koa: 2.99; log10 Koc (L/kg): 2; log10 vapour pressure (mmHg): 1.84; ready biodegradability: not readily biodegradable; log10 BCF: 1.2; log10 biotransformation half-life (days): -0.41

Structure (SMILES)	melting point [°C]	boiling point [°C]	further results
O=C1CCCO1	-43.3	204	log10 vapour pressure (mmHg): -0.347; ready biodegradability: readily biodegradable
CCCc1ccccc1N		226	
CC(C)(C)c1cccc(O)c1	42.3	240	log10 vapour pressure (mmHg): -1.7; ready biodegradability: not readily biodegradable
CCNC(=O)C(=O)NCC	175		
Cc1c2ccccc2nc2ccccc12	118		
COc1cccc(C(=O)O)c1OC	123		log10 vapour pressure (mmHg): -5.73
c1ccc2occc2c1		174	log10 vapour pressure (mmHg): -0.356
CNC		6.8	log10 Henry constant (atm·m³/mol): -4.75; log10 Koa: 2; log10 vapour pressure (mmHg): 3.18; ready biodegradability: readily biodegradable
CCCC(=O)OCCOc1ccccc1		251	
COCCO		124	log10 Henry constant (atm·m³/mol): -6.48; log10 vapour pressure (mmHg): 0.978; ready biodegradability: readily biodegradable
Cc1ccc(C(=O)O)c(C)c1	90	268	
CC(C)CC=NO	48.5	161	
CCCCCCCCCCCCCCCCCl	17.9	322	log10 vapour pressure (mmHg): -4.21
CCCCCC(CC)CC		166	
C[NH+](C)CCC(c1ccc(Cl)cc1)c1ccccn1.O=C([O-])/C=C\C(=O)O (stereo not given)	132		
Cc1cncc(C)c1	-6.6	172	log10 Henry constant (atm·m³/mol): -5.16; log10 vapour pressure (mmHg): 0.239
Cc1ccc([N+](=O)[O-])c(C)c1	9	247	log10 vapour pressure (mmHg): -1.24
Oc1c(Br)cc(Br)cc1Br	95.5	286	ready biodegradability: readily biodegradable; log10 BCF: 2.71
COCCOC	-58	85	log10 vapour pressure (mmHg): 1.68
CCCCCCCC#N	-45.6	205	log10 vapour pressure (mmHg): -0.409
COc1cc(N)c2c(c1N)C(=O)c1ccccc1C2=O	242		
Cc1ccccc1C(=O)Cl		214	
CC1(C)C(C=C(Cl)Cl)C1C(=O)OC(C#N)c1cccc(Oc2ccccc2)c1 (stereo not given)	81.3		log10 Koc (L/kg): 5; log10 BCF: 2.53
O=C1c2ccccc2C(=O)N1SC(Cl)(Cl)Cl			log10 Koc (L/kg): 3.27; log10 vapour pressure (mmHg): -6.8
CC(=O)Oc1ccc2c(c1)CC[C@@H]1[C@@H]2CC[C@]2(C)C(=O)[C@H](OC(C)=O)C[C@@H]12	180		

Structure (SMILES)	melting point [°C]	boiling point [°C]	further results
COc1cc(Cl)ccc1N	52	260	
O=[N+]([O-])c1cc(Cl)c(Cl)c(Cl)c1	72.5		
CCc1c(CC)c(CC)c(CC)c(CC)c1CC	129	298	
CC(C)COCCO		160	
CCCCCCCCN(CCCCCCCC)CCCCCCCC		366	ready biodegradability: readily biodegradable; log10 BCF: 1.93
c1ccc2nsnc2c1	43	203	
CCOC(=O)C(Br)C(C)Br (stereo not given)	58.5		
O=C(Nc1ccccc1)N(Cc1ccc(Cl)cc1)C1CCCC1	130		log10 Henry constant (atm·m³/mol): -11.3; log10 vapour pressure (mmHg): -11.4
Pc1ccccc1		160	
O=C(OC1CCCCC1)c1ccccc1C(=O)OC1CCCCC1	66		log10 vapour pressure (mmHg): -6.06; ready biodegradability: readily biodegradable
CN1CCC(N(Cc2ccccc2)c2ccccc2)CC1	115		
CC[C@]12CCCN3CCc4c(n(c5ccccc45)[C@@](O)(C(=O)OC)C1)[C@@H]32	232		
O=C(O)c1cccc2cccc(C(=O)O)c12	260		
CC(C)(I)I		173	
O=c1sc2ccccc2c(O)c1C1CC(c2ccc(-c3ccc(Br)cc3)cc2)Cc2ccccc21 (stereo not given)	234		
CC1=C(c2ccccc2)C(=O)N(C(C)(C)c2cc(Cl)cc(Cl)c2)CO1	150		
N=C(N)N1CCc2ccccc2C1	279		
C=Cc1ccc(Cl)cc1	15.9	192	log10 vapour pressure (mmHg): -0.0885; ready biodegradability: not readily biodegradable
OC1(c2ccccc2)CCCCC1	63.5		
CCOC(=O)C(C)=O	-50	155	
COc1cccc2c1C(=O)c1c(O)c3c(c(O)c1C2=O)C[C@@](O)(C(C)=O)C[C@@H]3O[C@H]1C[C@H](N)[C@H](O)[C@H](C)O1	208		
c1ccc(-n2cccc2)cc1	62	234	
c1ccc(Cc2ccc3ccccc3c2)cc1	58	350	
Cc1ccc(O)cc1	35.5	202	log10 Henry constant (atm·m³/mol): -6; log10 Koc (L/kg): 2.7; log10 vapour pressure (mmHg): -0.959; ready biodegradability: readily biodegradable
O=C(Nc1ccc(O)cc1)c1ccccc1O	179		

Structure (SMILES)	melting point [°C]	boiling point [°C]	further results
C#C[C@]1(O)CC[C@H]2[C@@H]3CCc4cc(OC5CCCC5)ccc4[C@H]3CC[C@@]21C	108		
Nc1ncc2ncn(COCCO)c2n1	189		
CN(C)C(N)=O	184		
C#CC(C)=CC		66.5	
O=C(OCc1ccco1)c1ccco1	27.5		
COc1nccnc1CC(C)C			log10 Henry constant (atm·m³/mol): -4.31
COc1ccc2c(c1)c(CC(=O)OCC(=O)O)c(C)n2C(=O)c1ccc(Cl)cc1	152		
S=C=Nc1cccc2ccccc12	58		
Cl.NCc1ccccc1	262		
O=C(O)CCCCCCCCCF	49		
N#Cc1cccc(N)c1	54.3	289	
N#CCc1ccc([N+](=O)[O-])cc1	117		
CC(COc1ccccc1)N(CCCl)Cc1ccccc1 (stereo not given)	39		
C#CCCCCCCCCC	-25	196	
O=C(CI)c1ccccc1	34.4		
Nc1ccc(Cc2ccc(N)c(Cl)c2Cl)c(Cl)c1Cl			ready biodegradability: not readily biodegradable
CCN(CC)c1ccc2c(-c3ccccc3C(=O)O)c3ccc(N(CC)CC)cc3[o+]c2c1			log10 BCF: 0.23
C=CCCCCCCCCCCCCCCC	11.5	300	log10 vapour pressure (mmHg): -3.34
CC(C)CC(C)(C)C	-107	99.2	log10 biodegradation half-life (days): 1.6; log10 vapour pressure (mmHg): 1.69; ready biodegradability: not readily biodegradable
CC[SiH2]CC	-134	57	
CC(C)(C)c1ccc(CCOc2ncnc3ccccc23)cc1	78.5		log10 vapour pressure (mmHg): -7.59
CC1=CC(=O)OC1=O	7.5	214	
CCC(C)C(C)(C)CC (stereo not given)	-101	140	log10 vapour pressure (mmHg): 0.948
Cc1ccccc1OC(=O)Oc1ccccc1C	60		
Cc1ccc([N+](=O)[O-])c(F)c1	53.2		

Structure (SMILES)	melting point [°C]	boiling point [°C]	further results
COc1ccccc1CC#N	69.8		
Cc1cccc(N)n1	41	208	
CCCCCCCCCC	-29.7	174	log10 biodegradation half-life (days): 0.954; log10 vapour pressure (mmHg): 0.155; ready biodegradability: readily biodegradable
O=c1[nH]cc(C(F)(F)F)c(=O)[nH]1	316		
O=[N+]([O-])c1cccc(Cl)c1	46	236	log10 Henry constant (atm·m³/mol): -4.87; log10 vapour pressure (mmHg): -1.01; ready biodegradability: not readily biodegradable; log10 BCF: 1.89
CNC1CCCCC1		147	
C=C1CCC2CC1C2(C)C (stereo not given)	-61.2	166	log10 vapour pressure (mmHg): 0.467
Cc1ccc2c(c1)CCC2		202	log10 biodegradation half-life (days): 0.301
C/C=C\C(C)(C)C	-135	80.4	
N#CCCN(CCO)c1ccc(N=Nc2ccc([N+](=O)[O-])cc2Cl)cc1	157		
C=CC(=C)CCC=C(C)C		167	log10 vapour pressure (mmHg): 0.304; ready biodegradability: readily biodegradable
CC(C)C(=O)c1ccccc1	-1.3	220	
C=C(C)c1ccccc1	-23.2	165	log10 vapour pressure (mmHg): 0.279; ready biodegradability: not readily biodegradable; log10 BCF: 1.8; log10 biotransformation half-life (days): -0.71
CC(Cl)c1ccccc1 (stereo not given)			log10 vapour pressure (mmHg): -0.187
CCCC(CC)CC(C)C (stereo not given)		158	
CCOc1ccc(CC(=O)O)cc1	88.5		
O=NN(c1ccccc1)c1ccccc1	66.5		log10 Koc (L/kg): 3.08; ready biodegradability: readily biodegradable; log10 BCF: 1.33; log10 biotransformation half-life (days): -0.91
O=CCCCl		130	
Nc1ccc(C2CCCCC2)cc1	54.5		
C=COCC	-116	35.5	log10 vapour pressure (mmHg): 2.71
CCc1ccccc1[N+](=O)[O-]	-12.3	232	ready biodegradability: not readily biodegradable; log10 BCF: 1.11; log10 biotransformation half-life (days): -0.56
C[Si](C)(C)O[Si](C)(C)O[Si](C)(C)O[Si](C)(C)C	-76	194	log10 Henry constant (atm·m³/mol): 1.23; log10 vapour pressure (mmHg): -0.426
